# Results from PubChem BioAssay (NCI).
#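 Compound exposure: 48 hours, 5 concentrations, 96-well plates. GI50 is the concentration that inhibits growth by half. TGI marks complete inhibition of growth.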
# Tests used:
# Experiment in all cases: NCI-60 cell line screen, 48 h
# RPMI-8226 leukemia = system: RPMI-8226 leukemia
# RXF 393 renal = system: RXF 393 renal
# SK-MEL-28 melanoma = system: SK-MEL-28 melanoma
# SW-620 colon = system: SW-620 colon
# OVCAR-3 ovarian = system: OVCAR-3 ovarian
# NCI-H23 lung = system: NCI-H23 lung
# U251 CNS = system: U251 CNS
# COLO 205 colon = system: COLO 205 colon
# SK-MEL-2 melanoma = system: SK-MEL-2 melanoma
# A549 NSCLC = system: A549 NSCLC
# MDA-MB-231 breast = system: MDA-MB-231 breast
# HCT-116 colon = system: HCT-116 colon
# LOX IMVI melanoma = system: LOX IMVI melanoma
# DU-145 prostate = system: DU-145 prostate
# CCRF-CEM leukemia = system: CCRF-CEM leukemia
# HCT-15 colon = system: HCT-15 colon
# SNB-75 CNS = system: SNB-75 CNS
# NCI-H460 lung = system: NCI-H460 lung
# MDA-MB-435 = system: MDA-MB-435
# ACHN renal = system: ACHN renal
# BT-549 breast = system: BT-549 breast
# T-47D breast = system: T-47D breast
# UACC-62 melanoma = system: UACC-62 melanoma
# NCI/ADR-RES ovarian = system: NCI/ADR-RES ovarian
# HCC-2998 colon = system: HCC-2998 colon
# PC-3 prostate = system: PC-3 prostate
# TK-10 renal = system: TK-10 renal
# CAKI-1 renal = system: CAKI-1 renal
# SK-OV-3 ovarian = system: SK-OV-3 ovarian
# UACC-257 melanoma = system: UACC-257 melanoma
# SF-295 CNS = system: SF-295 CNS
# SN12C renal = system: SN12C renal
# UO-31 renal = system: UO-31 renal
# SF-539 CNS = system: SF-539 CNS
# NCI-H522 lung = system: NCI-H522 lung
# 786-0 renal = system: 786-0 renal
# A498 renal = system: A498 renal
# OVCAR-8 ovarian = system: OVCAR-8 ovarian
# MCF7 breast = system: MCF7 breast
# HL-60(TB) leukemia = system: HL-60(TB) leukemia
# M14 melanoma = system: M14 melanoma
# HS 578T breast = system: HS 578T breast
# SF-268 CNS = system: SF-268 CNS
# SK-MEL-5 melanoma = system: SK-MEL-5 melanoma
# HOP-62 NSCLC = system: HOP-62 NSCLC
# KM12 colon = system: KM12 colon
# HT29 colon = system: HT29 colon
# IGROV1 ovarian = system: IGROV1 ovarian
# EKVX NSCLC = system: EKVX NSCLC
# K-562 leukemia = system: K-562 leukemia
# MALME-3M melanoma = system: MALME-3M melanoma
# MOLT-4 leukemia = system: MOLT-4 leukemia
# OVCAR-5 ovarian = system: OVCAR-5 ovarian
# NCI-H226 lung = system: NCI-H226 lung
# HOP-92 NSCLC = system: HOP-92 NSCLC
# SR leukemia = system: SR leukemia
# SNB-19 CNS = system: SNB-19 CNS
# OVCAR-4 ovarian = system: OVCAR-4 ovarian
structure (smiles),measurement,setting,value
O=C(CCl)Nc1ccc2c(c1)C(=O)c1ccccc1C2=O,GI50,RPMI-8226 leukemia,2.04 µM
same,TGI,RPMI-8226 leukemia,5.62 µM
same,GI50,RXF 393 renal,2 µM
same,TGI,RXF 393 renal,3.78 µM
same,GI50,SK-MEL-28 melanoma,3.8 µM
same,TGI,SK-MEL-28 melanoma,9.98 µM
same,GI50,SW-620 colon,1.43 µM
same,TGI,SW-620 colon,2.92 µM
same,GI50,OVCAR-3 ovarian,1.72 µM
same,TGI,OVCAR-3 ovarian,3.27 µM
same,GI50,NCI-H23 lung,1.7 µM
same,TGI,NCI-H23 lung,4.15 µM
same,GI50,U251 CNS,1.86 µM
same,TGI,U251 CNS,4.11 µM
same,GI50,COLO 205 colon,1.48 µM
same,TGI,COLO 205 colon,3.33 µM
same,GI50,SK-MEL-2 melanoma,1.58 µM
same,TGI,SK-MEL-2 melanoma,3.85 µM
same,GI50,A549 NSCLC,8.51 µM
same,TGI,A549 NSCLC,23.5 µM
same,GI50,MDA-MB-231 breast,1.65 µM
same,TGI,MDA-MB-231 breast,4.64 µM
same,GI50,HCT-116 colon,0.79 µM
same,TGI,HCT-116 colon,2.97 µM
same,GI50,LOX IMVI melanoma,0.39 µM
same,TGI,LOX IMVI melanoma,0.994 µM
same,GI50,DU-145 prostate,1.8 µM
same,TGI,DU-145 prostate,3.36 µM
same,GI50,CCRF-CEM leukemia,0.676 µM
same,TGI,CCRF-CEM leukemia,> 100 µM
same,GI50,HCT-15 colon,0.73 µM
same,TGI,HCT-15 colon,2.44 µM
same,GI50,SNB-75 CNS,2.19 µM
same,TGI,SNB-75 CNS,8.44 µM
same,GI50,NCI-H460 lung,2.13 µM
same,TGI,NCI-H460 lung,5.61 µM
same,GI50,MDA-MB-435,2.05 µM
same,TGI,MDA-MB-435,5.46 µM
same,GI50,ACHN renal,1.71 µM
same,TGI,ACHN renal,3.17 µM
same,GI50,BT-549 breast,1.46 µM
same,TGI,BT-549 breast,3.58 µM
same,GI50,T-47D breast,1.11 µM
same,TGI,T-47D breast,2.87 µM
same,GI50,UACC-62 melanoma,1.51 µM
same,TGI,UACC-62 melanoma,3.17 µM
same,GI50,NCI/ADR-RES ovarian,2.16 µM
same,TGI,NCI/ADR-RES ovarian,6.56 µM
same,GI50,HCC-2998 colon,1.86 µM
same,TGI,HCC-2998 colon,3.65 µM
same,GI50,PC-3 prostate,2.77 µM
same,TGI,PC-3 prostate,11.6 µM
same,GI50,TK-10 renal,1.87 µM
same,TGI,TK-10 renal,3.72 µM
same,GI50,CAKI-1 renal,1.59 µM
same,TGI,CAKI-1 renal,2.96 µM
same,GI50,SK-OV-3 ovarian,3.71 µM
same,TGI,SK-OV-3 ovarian,17 µM
same,GI50,UACC-257 melanoma,5.59 µM
same,TGI,UACC-257 melanoma,13.9 µM
same,GI50,SF-295 CNS,2.42 µM
same,TGI,SF-295 CNS,10.5 µM
same,GI50,SN12C renal,1.41 µM
same,TGI,SN12C renal,3.01 µM
same,GI50,UO-31 renal,1.73 µM
same,TGI,UO-31 renal,3.47 µM
same,GI50,SF-539 CNS,2.44 µM
same,TGI,SF-539 CNS,6.49 µM
same,GI50,NCI-H522 lung,0.533 µM
same,TGI,NCI-H522 lung,1.22 µM
same,GI50,786-0 renal,1.67 µM
same,TGI,786-0 renal,3.56 µM
same,GI50,A498 renal,12.2 µM
same,TGI,A498 renal,25.8 µM
same,GI50,OVCAR-8 ovarian,2.35 µM
same,TGI,OVCAR-8 ovarian,6.35 µM
same,GI50,MCF7 breast,1.63 µM
same,TGI,MCF7 breast,3.64 µM
same,GI50,HL-60(TB) leukemia,2.41 µM
same,TGI,HL-60(TB) leukemia,5.33 µM
same,GI50,M14 melanoma,1.31 µM
same,TGI,M14 melanoma,2.98 µM
same,GI50,HS 578T breast,3.56 µM
same,TGI,HS 578T breast,20.1 µM
same,GI50,SF-268 CNS,1.79 µM
same,TGI,SF-268 CNS,4.59 µM
same,GI50,SK-MEL-5 melanoma,1.16 µM
same,TGI,SK-MEL-5 melanoma,2.42 µM
same,GI50,HOP-62 NSCLC,2.98 µM
same,TGI,HOP-62 NSCLC,8.5 µM
same,GI50,KM12 colon,3.03 µM
same,TGI,KM12 colon,9.34 µM
same,GI50,HT29 colon,1.66 µM
same,TGI,HT29 colon,3.8 µM
same,GI50,IGROV1 ovarian,0.99 µM
same,TGI,IGROV1 ovarian,3.23 µM
same,GI50,EKVX NSCLC,2.2 µM
same,TGI,EKVX NSCLC,6.35 µM
same,GI50,K-562 leukemia,1.03 µM
same,TGI,K-562 leukemia,> 100 µM
same,GI50,MALME-3M melanoma,1.39 µM
same,TGI,MALME-3M melanoma,3.11 µM
same,GI50,MOLT-4 leukemia,2.24 µM
same,TGI,MOLT-4 leukemia,> 100 µM
same,GI50,OVCAR-5 ovarian,2.5 µM
same,TGI,OVCAR-5 ovarian,6.89 µM
same,GI50,NCI-H226 lung,2.39 µM
same,TGI,NCI-H226 lung,6.76 µM
same,GI50,HOP-92 NSCLC,3.72 µM
same,TGI,HOP-92 NSCLC,9.73 µM
same,GI50,SR leukemia,0.0567 µM
same,TGI,SR leukemia,> 100 µM
same,GI50,SNB-19 CNS,2.94 µM
same,TGI,SNB-19 CNS,11.5 µM
same,GI50,OVCAR-4 ovarian,3.48 µM
same,TGI,OVCAR-4 ovarian,11.3 µM
